We go through six compounds from ChEMBL document CHEMBL1201862, “PubChem BioAssay data set” (2004).

The source made the active and inactive calls. For most assays here, no stated cut-off is given here; in the data, actives have a measured IC50 and inactives only a lower limit.

Format in all cases: functional
The target in experiment [1] is T1, Sentrin-specific protease 8 (Homo sapiens, UniProt Q96LD8).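 Further: luminescence read-out of SENP8 inhibition, dose-response confirmation following an ultra-high-throughput screen.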
T1 sequence (Q96LD8 whole entry): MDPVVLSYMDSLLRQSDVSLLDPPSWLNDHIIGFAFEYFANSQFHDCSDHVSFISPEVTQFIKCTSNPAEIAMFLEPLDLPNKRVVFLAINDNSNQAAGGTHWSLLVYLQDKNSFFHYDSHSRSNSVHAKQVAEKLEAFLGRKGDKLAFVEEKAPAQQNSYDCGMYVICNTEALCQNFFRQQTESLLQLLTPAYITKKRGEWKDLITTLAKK

Experiment [2] concerns the target T2, Sentrin-specific protease 7 (Homo sapiens, UniProt Q9BQF6).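 Further: Luminescence-based dose-response confirmation of ultra-high-throughput screening hits, measuring inhibition of SENP7.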
T2 sequence (Q9BQF6 whole entry): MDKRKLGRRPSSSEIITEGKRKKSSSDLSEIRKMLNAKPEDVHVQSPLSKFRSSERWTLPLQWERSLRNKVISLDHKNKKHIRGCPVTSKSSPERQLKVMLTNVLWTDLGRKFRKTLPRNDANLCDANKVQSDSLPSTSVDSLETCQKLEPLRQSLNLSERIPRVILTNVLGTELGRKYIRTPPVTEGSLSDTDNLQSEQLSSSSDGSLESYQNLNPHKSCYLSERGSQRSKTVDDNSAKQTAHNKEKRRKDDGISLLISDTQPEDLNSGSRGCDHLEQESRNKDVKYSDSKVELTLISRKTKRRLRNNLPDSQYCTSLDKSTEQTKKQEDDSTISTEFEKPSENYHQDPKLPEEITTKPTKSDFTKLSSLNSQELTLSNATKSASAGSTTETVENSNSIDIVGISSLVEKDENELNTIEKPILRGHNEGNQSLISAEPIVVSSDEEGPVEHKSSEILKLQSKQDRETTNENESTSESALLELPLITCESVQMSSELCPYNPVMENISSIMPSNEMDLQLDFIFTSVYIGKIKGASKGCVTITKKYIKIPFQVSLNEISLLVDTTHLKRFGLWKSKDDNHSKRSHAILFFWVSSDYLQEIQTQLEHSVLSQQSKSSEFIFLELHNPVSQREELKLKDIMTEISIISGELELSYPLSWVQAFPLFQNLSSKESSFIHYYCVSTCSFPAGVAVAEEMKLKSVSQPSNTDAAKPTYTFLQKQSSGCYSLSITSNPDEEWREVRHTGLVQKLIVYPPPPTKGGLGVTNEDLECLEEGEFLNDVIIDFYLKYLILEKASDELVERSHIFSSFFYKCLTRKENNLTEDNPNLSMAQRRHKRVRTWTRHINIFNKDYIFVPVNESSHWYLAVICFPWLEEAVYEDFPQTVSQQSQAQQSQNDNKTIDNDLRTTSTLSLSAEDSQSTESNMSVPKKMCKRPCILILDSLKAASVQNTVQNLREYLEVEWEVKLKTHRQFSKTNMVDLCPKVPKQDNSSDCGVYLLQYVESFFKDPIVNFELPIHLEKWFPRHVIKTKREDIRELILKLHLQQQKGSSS

The target in a further experiment is T3, Caspase-3 (Homo sapiens, UniProt P42574).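 Further: Dose-response selectivity test against caspase-3 for candidate inhibitors of sentrin-specific proteases (SENPs).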
T3 sequence (P42574 whole entry): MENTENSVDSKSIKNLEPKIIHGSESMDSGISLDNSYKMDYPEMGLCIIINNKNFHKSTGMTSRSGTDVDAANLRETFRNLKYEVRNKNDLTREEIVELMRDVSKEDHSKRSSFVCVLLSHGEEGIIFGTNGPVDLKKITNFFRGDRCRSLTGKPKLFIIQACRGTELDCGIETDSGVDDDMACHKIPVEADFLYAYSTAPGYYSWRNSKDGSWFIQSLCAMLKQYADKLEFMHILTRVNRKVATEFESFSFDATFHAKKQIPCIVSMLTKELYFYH

The target in a further experiment is T4, Protein RecA (Mycobacterium tuberculosis, UniProt P9WHJ3).
T4 sequence (P9WHJ3 whole entry): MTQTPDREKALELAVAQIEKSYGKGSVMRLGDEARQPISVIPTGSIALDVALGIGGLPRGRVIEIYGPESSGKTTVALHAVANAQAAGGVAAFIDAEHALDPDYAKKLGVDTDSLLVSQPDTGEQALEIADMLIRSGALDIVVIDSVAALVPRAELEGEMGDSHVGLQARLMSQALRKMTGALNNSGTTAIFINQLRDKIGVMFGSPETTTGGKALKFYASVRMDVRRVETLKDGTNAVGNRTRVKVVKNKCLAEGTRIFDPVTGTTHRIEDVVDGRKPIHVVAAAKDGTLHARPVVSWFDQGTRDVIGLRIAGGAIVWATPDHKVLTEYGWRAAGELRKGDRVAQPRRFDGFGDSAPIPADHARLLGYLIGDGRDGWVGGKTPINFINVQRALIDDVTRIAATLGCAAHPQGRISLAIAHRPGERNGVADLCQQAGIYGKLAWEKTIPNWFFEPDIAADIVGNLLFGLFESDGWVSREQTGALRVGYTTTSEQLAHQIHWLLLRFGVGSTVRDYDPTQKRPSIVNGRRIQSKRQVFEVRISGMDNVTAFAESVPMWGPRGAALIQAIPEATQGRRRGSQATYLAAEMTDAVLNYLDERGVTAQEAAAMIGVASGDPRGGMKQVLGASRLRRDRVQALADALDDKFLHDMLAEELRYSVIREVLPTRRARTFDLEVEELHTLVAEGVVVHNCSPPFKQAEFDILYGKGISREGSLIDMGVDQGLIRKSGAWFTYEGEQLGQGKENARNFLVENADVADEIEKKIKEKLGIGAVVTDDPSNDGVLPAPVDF
Description: Fluorescence Cell-Free Homogeneous Dose Retest to Identify Inhibitors of RecA-Intein Splicing Activity. [Related pubchem assays (depositor defined):AID2097, AID2223, AID489010, AID492950].

For the compound `O=C1N=C(NS(=O)(=O)Cc2ccccc2)S/C1=C1\C(=O)Nc2ccccc21`, the IC50 was 24.5 µM (active) in experiment [1], 3.76 µM (active) in experiment [2] and 67.2 µM (active) on Caspase-3.
Consider `O=C1C=C(N2CCCCC2)c2ccccc2C1=O`, for which, at Protein RecA, the EC50 is 1.25 µM (active).
As for `Clc1ccc2nc(-c3ccc(Br)s3)cn2c1`, the IC50 is 16.5 µM (active) in experiment [1], 7.91 µM (active) in experiment [2] and 11.2 µM (active) on Caspase-3.
`CC(=O)NC1C(=O)N(CCN2CCOCC2)c2ccc(F)cc21` (configuration not stated): the EC50 at Protein RecA is 12.1 µM (active).
Take `Oc1ccc(N=Nc2c(O)ccc3ccccc23)cc1`: the IC50 in experiment [1] is 8.8 µM (active); in experiment [2], 8.49 µM (active); on Caspase-3, 49.7 µM (active).
Take `O=C(O)C1Nc2c(O)cc(Cl)c([N+](=O)[O-])c2C2C=CCC12` (configuration not stated): the EC50 at Protein RecA is 11.5 µM (active).

What is called IC50 is the concentration that inhibits the measured activity by half. By EC50 is commonly meant the concentration that produces a half-maximal response.
